Measurements published in US4018786A, “2-Aminothiazolines and a process for preparation thereof” (Centre d'Etudes pour l'Industrie Pharmaceutique, priority 1974, dated 1977).
Structures can show the parent of a compound that is named as a salt.

Columns and labels:
[1] = Triton test (hypocholesterolemic action); format: in vivo, rat; conditions: for reduction of free cholesterol and of total cholesterol: 100 mg/kg oral, rat, 18 hours after Triton; for reduction of free cholesterol and total cholesterol levels: 50 mg/kg oral
Experimental: The intravenous injection of Triton W-R 1339 (an alkylaryl polyetheralcohol sold by Rohm and Haas) enables one to artifically increase, in the rat, certain lipidic fractions of serum and thus to evalute the hypocholesterolemic action of the compounds of the invention. […]
Eighteen hours later a blood sample is taken and the β-lipoproteins, the free cholesterol and the cholesterol are determined.
This test, which enables one to evaluate the hypocholesterolemic action of the derivatives to be tested, on serum levels of certain lipid fractions, has shown the remarkable effect of the compounds according to the invention.

[2] = Propyl-thiouracil test (hypocholesterolemic action); format: in vivo, rats
Experimental: a. Propyl-thiouracil test (RANNEY et Coll. J. Pharmacol. Exper. Therap. 1963, 142, 132-136)
The administration of propyl-thiouracil to adult rats renders them hypercholesterolemic; in effect, the plasmatic cholesterol rate has increased by about 15%. The testing is carried out on two groups of rats, the control group receiving the propyl-thiouracil only whilst the treated group also receives 100 mg/kg of the compounds to be tested, by the oral route.
On the 11th day of the experiment, the blood samples are taken and the β-lipoproteins, the free cholesterol and the total cholesterol measured.
a. Propyl-thiouracil test (Ranney et Coll. J. Pharmacol. Exper. Therap. 1963, 142, 132-136)
This test has shown the clearly favourable action of the derivatives according to the invention, at a dose of […].

[3] = LD50/24 h by the method of Miller & Tainter, intravenous route, mice; conditions: mouse, in vivo, read-out: LD50 /24 h/kg of body weight
ovalbumin-induced oedema = assay: Generalised ovalbumin-induced oedema method (anti-inflammatory action); format: in vivo, rats; conditions: for percentage of decrease of the oedematic reaction, Second Hour / percentage of decrease of the oedematic reaction, Third Hour: 100 mg oral, rats; for percentage of reduction of oedematic reaction, 1st hour / percentage of reduction of oedematic reaction, 2nd hour: 50 mg/kg oral
Experimental: b. Generalised ovalbumin-induced oedema method
A simultaneous intraperitoneal injection of 1 ml of ovalbumin and of 0.5 ml of an aqueous solution of Evans Blue at 1 ml per thousand by weight is administered to rats.
For comparative purposes, 100 mg of the compound to be tested is administered orally to the animals of the group to be treated, 1 hour before and at the same time as the ovalbumin. The intensity of the phenomenon thus provoked in noted by a FIG. 1 to 5 according to the intensity of the inflammatory syndrome.
Thus one determines the average of the oedematic intensity and the percentage of decrease of the oedematic reaction in relation to the control animals.
b. method of generalised ovalbumin-induced oedema
The percentages of reduction of oedematic reaction, in the test animals, in subjects treated by the oral route by the administration of […] of the compound to be tested show the clear anti-inflammatory action of the compounds according to the invention.

[4] = system: carrageenin-induced oedema; assay: Localised carrageenin-induced oedema method (anti-inflammatory action); format: in vivo, rat; conditions: for percentage of anti-inflammatory activity, First Hour / percentage of anti-inflammatory activity, Second Hour / percentage of anti-inflammatory activity, Third Hour / percentage of anti-inflammatory activity, Fifth Hour: 100 mg/kg oral per administration, rat; for percentage of anti-inflammatory activity, First Hour: 1 hour after carrageenin; for percentage of anti-inflammatory activity, Second Hour: 2 hours after carrageenin; for percentage of anti-inflammatory activity, Third Hour: 3 hours after carrageenin; for percentage of anti-inflammatory activity, Fifth Hour: 5 hours after carrageenin; for reduction of the inflammatory reaction, 1st hour / reduction of the inflammatory reaction, 2nd hour / reduction of the inflammatory reaction, 3rd hour / reduction of the inflammatory reaction, 4th hour / reduction of the inflammatory reaction, 5th hour: 50 mg/kg oral
Experimental: a. Localised carrageenin-induced oedema method
A 1% solution of carrageenin (0.1 ml) is injected into the metatarsal flexor muscles of the right hand rear paw of the rat at time "0".
The animals of the treated group also receive, by the oral route, 100 mg/kg of the compound to be tested, respectively 1 hour before and at the same time as the injection of the phlogogenic agent, then 1 hour and 21/2 hours after. The measurements made with the aid of a micrometer at the time "0" and 1 hour, 2 hours, 3 hours and 5 hours after the administration of the carrageenin, enable one to determine, in relation to time, the percentage of anti-inflammatory activity in relation to the control group.
a. method of localised carrageenin-induced oedema
The oral administration of […] of the derivatives to be tested produces a clear reduction of the inflammatory reaction provoked.

[5] = LD50/24 hours by the method of Miller & Tainter, intravenous route (derivatives 34 to 38, species not restated); conditions: in vivo, read-out: LD50 /24 hours /kg of body weight
[6] = 100 mg/kg oral, rats, 11th day, control 0.20 g/l
[7] = 100 mg/kg oral, rats, 11th day, control 0.86 g/l

Structure (SMILES)	LD50 at 24 h [3] [mg/kg]	LD50 at 24 h [5] [mg/kg]	percentage of reduction of oedematic reaction, 1st hour (ovalbumin-induced oedema) [%]	percentage of reduction of oedematic reaction, 2nd hour (ovalbumin-induced oedema) [%]	reduction of free cholesterol and total cholesterol levels [1] [%]	reduction of the inflammatory reaction, 1st hour [4]	reduction of the inflammatory reaction, 2nd hour [4]	reduction of the inflammatory reaction, 3rd hour [4]	reduction of the inflammatory reaction, 4th hour [4]	reduction of the inflammatory reaction, 5th hour [4]	Free cholesterol ([2]; 50 mg/kg, control 0.25)	Total cholesterol ([2]; 50 mg/kg, control 0.89)	also measured
CCN(CC)CC=C1CN=C(NC2CCCCC2)S1 [Derivative No. 1, 2-cyclohexylamino 5-β-diethylaminoethylidene Δ^2-thiazoline]	42												reduction of free cholesterol and of total cholesterol [1]: ~28%; Free cholesterol [2, 6]: 0.14 g/L; Total cholesterol [2, 7]: 0.60 g/L
CCN(CC)CCC1CN=C(NC2CCCCC2)S1 (stereo not drawn) [Derivative No. 3, 2-cyclohexlamino 5-β-diethylaminoethyl Δ^2-thiazoline]													percentage of decrease of the oedematic reaction, Second Hour (ovalbumin-induced oedema): 54%; percentage of decrease of the oedematic reaction, Third Hour (ovalbumin-induced oedema): 60%; percentage of anti-inflammatory activity, First Hour [4]: 37%; percentage of anti-inflammatory activity, Second Hour [4]: 39%; percentage of anti-inflammatory activity, Third Hour [4]: 46%; percentage of anti-inflammatory activity, Fifth Hour [4]: 48%
CCN(CC)CC=C1CN=C(NCC(O)c2ccccc2)S1 (stereo not drawn) [Derivative No. 4, 2-β-hydroxyphenethylamino 5-(N-diethylaminoethylidene) Δ^2-thiazoline]													percentage of decrease of the oedematic reaction, Second Hour (ovalbumin-induced oedema): 59%; percentage of decrease of the oedematic reaction, Third Hour (ovalbumin-induced oedema): 65%; percentage of anti-inflammatory activity, First Hour [4]: 39%; percentage of anti-inflammatory activity, Second Hour [4]: 40%; percentage of anti-inflammatory activity, Third Hour [4]: 49%; percentage of anti-inflammatory activity, Fifth Hour [4]: 53%
CCCCNc1ncc(CCN(CC)CC)s1 [Derivative No. 9, 2-butylamino 5-β-diethylaminoethyl thiazole dihydrochloride]													reduction of free cholesterol and of total cholesterol [1]: ~24%; Free cholesterol [2, 6]: 0.15 g/L; Total cholesterol [2, 7]: 0.58 g/L
CCN(CC)CC=C1CN=C(N(CC)C2CCCCC2)S1 [Derivative No. 10, 5-(β-diethylaminoethylidene) 2-N-ethyl N-cyclohexylamino) Δ^2-thiazoline oxalate]													percentage of decrease of the oedematic reaction, Second Hour (ovalbumin-induced oedema): 57%; percentage of decrease of the oedematic reaction, Third Hour (ovalbumin-induced oedema): 64%; percentage of anti-inflammatory activity, First Hour [4]: 44%; percentage of anti-inflammatory activity, Second Hour [4]: 47%; percentage of anti-inflammatory activity, Third Hour [4]: 52%; percentage of anti-inflammatory activity, Fifth Hour [4]: 56%
CCN(CC)CC=C1CN=C(N2CCN(C)CC2)S1 [Derivative No. 12, 5-(2-diethylaminoethylidene) 2-(4-methyl 1-piperazinyl) Δ^2-thiazoline tetrahydrochloride]	90												reduction of free cholesterol and of total cholesterol [1]: ~26%; Free cholesterol [2, 6]: 0.15 g/L; Total cholesterol [2, 7]: 0.61 g/L
CCN(CC)CC=C1CN=C(N2CCOCC2)S1 [Derivative No. 14, 5-β-diethylaminoethylidene 2-morpholino Δ^2-thiazoline oxalate]	105												
CCN(CC)CC=C1CN=C(N(CC)CC)S1 [Derivative No. 15, 2-diethylamino 5-(2-diethylaminoethylidene) Δ^2-thiazoline dioxalate]													reduction of free cholesterol and of total cholesterol [1]: ~22%; Free cholesterol [2, 6]: 0.12 g/L; Total cholesterol [2, 7]: 0.58 g/L
CCN(CC)CC=C1CN=C(NC(C)(C)CC(C)(C)C)S1 [Derivative No. 18, 5-(β-diethylaminoethylidene) 2-(1,1,3,3-tetramethyl-butyl-amino) Δ^2-thiazoline]	45												
CCN(CC)CC=C1CN=C(NC)S1 [Derivative No. 21, 5-(β-diethylaminoethylidene) 2-methylamino Δ^2-thiazoline oxalate]	92												
CCN(CC)CCc1cnc(N(C)C2CCCCC2)s1 [Derivative No. 22, 5-β-diethylaminoethyl 2-(N-methyl N-cyclohexylamino)-thiazole dioxalate]													percentage of decrease of the oedematic reaction, Second Hour (ovalbumin-induced oedema): 52%; percentage of decrease of the oedematic reaction, Third Hour (ovalbumin-induced oedema): 60%; percentage of anti-inflammatory activity, First Hour [4]: 42%; percentage of anti-inflammatory activity, Second Hour [4]: 46%; percentage of anti-inflammatory activity, Third Hour [4]: 54%; percentage of anti-inflammatory activity, Fifth Hour [4]: 56%
Clc1ccc(N2CCN(CC=C3CN=C(NC4CCCCC4)S3)CC2)cc1 [Derivative No. 34, 5-[4-β-(parachlorophenyl)piperazinoethylidene] 2-cyclohexylamino Δ^2-thiazoline]		35	58	62	~34	40	44	50	53	55	0.13	0.55	
C(CN1CCN(c2ccccc2)CC1)=C1CN=C(NC2CCCCC2)S1 [Derivative No. 35, 2-cyclohexylamino 5-[4-β-(phenyl)piperazinoethylidene] Δ^2-thiazoline]		48	62	65	~29	45	46	55	57	58	0.11	0.61	
FC(F)(F)c1cccc(N2CCN(CC=C3CN=C(NC4CCCCC4)S3)CC2)c1 [Derivative No. 36]		65	55	61	~27	46	50	59	61	62	0.13	0.63	
Clc1ccccc1N1CCN(CC=C2CN=C(NC3CCCCC3)S2)CC1 [Derivative No. 37, 5-[4-β-(orthochlorophenyl)piperazinoethylidene]2-cyclohexylamino Δ^2-thiazoline]		57	60	68	~41	38	43	48	52	57	0.10	0.60	
COc1ccc(N2CCN(CC=C3CN=C(NC4CCCCC4)S3)CC2)cc1 [Derivative No. 38, 2-cyclohexylamino 5-[4-β-(paramethoxyphenyl)piperazinoethylidene] Δ^2-thiazoline]		52	64	70	~44	49	53	56	60	61	0.09 g/L	0.58	
